Patent publication US10294202B2, “Pyrrolidinones as herbicides” (FMC Corporation, priority 2013, dated 2019)

Legend:
canarygrass = assay: Test C postemergence herbicide test; assay type: in vivo, Phalaris minor
Text: (§1) At the same time, plants selected from these crop and weed species and also barley (winter barley, Hordeum vulgare), […]), chickweed (common chickweed, Stellaria media), deadnettle (henbit deadnettle, Lamium amplexicaule), and canarygrass (littleseed canarygrass, Phalaris minor) were planted in pots containing Redi-Earth® planting medium (Scotts Company, 14111 Scottslawn Road, Marysville, Ohio 43041) comprising spaghnum peat moss, vermiculite, wetting agent and starter nutrients and treated with postemergence applications of test chemicals formulated in the same manner. Plants ranged in height from 2 to 18 cm (1- to 4-leaf stage) for postemergence treatments. Treated plants and controls were maintained in a greenhouse for 13 to 15 days, after which time all species were compared to controls and visually evaluated. Plant response ratings, summarized in Table C, are based on a scale of 0 to 100 where 0 is no effect and 100 is complete control. A dash (-) response means no test result.

wheat, winter = assay: Test D pre-/postemergence herbicide test; assay type: in vivo, Triticum aestivum; details: for Plant response rating: Postemergence, Wheat, Winter, scale 0 to 100; for Plant response rating, Wheat, Winter: Preemergence, scale 0 to 100 (0 no effect, 100 complete control)
In short: (§2)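 Dual-timing greenhouse test: preemergence application to seeds in silt loam soil, postemergence application to 1- to 4-leaf plants in peat-based medium. Chemicals were formulated with surfactant in non-phytotoxic solvent. Control was rated visually 0–100 relative to untreated plants after 7 to 21 days.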

wheat, spring = assay: Test D pre-/postemergence herbicide test; assay type: in vivo, Triticum aestivum; details: for Plant response rating: Postemergence, Wheat, Spring, scale 0 to 100; for Plant response rating, Wheat, Spring: Preemergence, scale 0 to 100 (0 no effect, 100 complete control)
In short: as §2

barley (winter barley) = assay: Test C postemergence herbicide test; assay type: in vivo, Hordeum vulgare
Text: as §1

[1] = 31 g ai/ha, scale 0 (no effect) to 100 (complete control)
[2] = 62 g ai/ha, scale 0 to 100 (0 no effect, 100 complete control)
[3] = 125 g ai/ha, scale 0 to 100 (0 no effect, 100 complete control)
[4] = 250 g ai/ha, scale 0 to 100 (0 no effect, 100 complete control)

## O=C1NCC(c2ccc(Cl)c(F)c2)C1C(=O)Nc1cccc(F)c1F (stereo not shown) [Compound 52]
canarygrass; [1]
  Plant response rating, Canarygrass: 0
canarygrass; [2]
  Plant response rating, Canarygrass: 0
canarygrass; [3]
  Plant response rating, Canarygrass: 0
canarygrass; [4]
  Plant response rating, Canarygrass: 0
wheat, winter; 16 g ai/ha
  Plant response rating: 0
  Plant response rating, Wheat, Winter: 0
wheat, winter; 31 g ai/ha
  Plant response rating: 0
  Plant response rating, Wheat, Winter: 0
wheat, winter; 62 g ai/ha
  Plant response rating: 0
  Plant response rating, Wheat, Winter: 0
wheat, winter; 125 g ai/ha
  Plant response rating: 0
  Plant response rating, Wheat, Winter: 0
wheat, winter; 250 g ai/ha
  Plant response rating: 0
  Plant response rating, Wheat, Winter: 10
wheat, spring; 16 g ai/ha
  Plant response rating: 0
  Plant response rating, Wheat, Spring: 0
wheat, spring; 31 g ai/ha
  Plant response rating: 0
  Plant response rating, Wheat, Spring: 0
wheat, spring; 62 g ai/ha
  Plant response rating: 0
  Plant response rating, Wheat, Spring: 0
wheat, spring; 125 g ai/ha
  Plant response rating: 0
  Plant response rating, Wheat, Spring: 0
wheat, spring; 250 g ai/ha
  Plant response rating: 0
  Plant response rating, Wheat, Spring: 0
Barley (winter barley); [1]
  Plant response rating, Barley: 0
Barley (winter barley); [2]
  Plant response rating, Barley: 0
Barley (winter barley); [3]
  Plant response rating, Barley: 0
Barley (winter barley); [4]
  Plant response rating, Barley: 15

## O=C1NCC(c2cc(F)c(F)cc2F)C1C(=O)Nc1cccc(F)c1F (stereo not shown) [Compound 50]
canarygrass; [1]
  Plant response rating, Canarygrass: 0
canarygrass; [2]
  Plant response rating, Canarygrass: 0
canarygrass; [3]
  Plant response rating, Canarygrass: 0
canarygrass; [4]
  Plant response rating, Canarygrass: 0
wheat, winter; 16 g ai/ha
  Plant response rating: 0
  Plant response rating, Wheat, Winter: 0
wheat, winter; 31 g ai/ha
  Plant response rating: 0
  Plant response rating, Wheat, Winter: 0
wheat, winter; 62 g ai/ha
  Plant response rating: 0
  Plant response rating, Wheat, Winter: 0
wheat, winter; 125 g ai/ha
  Plant response rating: 0
  Plant response rating, Wheat, Winter: 0
wheat, spring; 16 g ai/ha
  Plant response rating: 0
  Plant response rating, Wheat, Spring: 0
wheat, spring; 31 g ai/ha
  Plant response rating: 0
  Plant response rating, Wheat, Spring: 0
wheat, spring; 62 g ai/ha
  Plant response rating: 0
  Plant response rating, Wheat, Spring: 0
wheat, spring; 125 g ai/ha
  Plant response rating: 0
  Plant response rating, Wheat, Spring: 0
Barley (winter barley); [1]
  Plant response rating, Barley: 0
Barley (winter barley); [2]
  Plant response rating, Barley: 0
Barley (winter barley); [3]
  Plant response rating, Barley: 0
Barley (winter barley); [4]
  Plant response rating, Barley: 0

## O=C1NCC(c2ccc(F)c(F)c2)C1C(=O)Nc1cccc(F)c1F (stereo not shown) [Compound 17, N-(2,3-difluorophenyl)-4-(3,4-difluorophenyl)-2-oxo-3-pyrrolidinecarboxamide]
canarygrass; [1]
  Plant response rating, Canarygrass: 0
canarygrass; [2]
  Plant response rating, Canarygrass: 0
canarygrass; [3]
  Plant response rating, Canarygrass: 0
canarygrass; [4]
  Plant response rating, Canarygrass: 0
wheat, winter; 16 g ai/ha
  Plant response rating: 0
wheat, winter; 31 g ai/ha
  Plant response rating: 0
wheat, winter; 62 g ai/ha
  Plant response rating: 0
wheat, winter; 125 g ai/ha
  Plant response rating: 0
wheat, winter; 250 g ai/ha
  Plant response rating: 0
wheat, spring; 16 g ai/ha
  Plant response rating: 0
wheat, spring; 31 g ai/ha
  Plant response rating: 0
wheat, spring; 62 g ai/ha
  Plant response rating: 0
wheat, spring; 125 g ai/ha
  Plant response rating: 0
wheat, spring; 250 g ai/ha
  Plant response rating: 0
Barley (winter barley); [1]
  Plant response rating, Barley: 0
Barley (winter barley); [2]
  Plant response rating, Barley: 0
Barley (winter barley); [3]
  Plant response rating, Barley: 0
Barley (winter barley); [4]
  Plant response rating, Barley: 0
